Laboratory results from patent US6482855B2, “Diamine alkylene diacetic or triacetic acid derivatives, preparation method, use in cosmetic and pharmaceutical compositions and compositions containing them” (L'Oreal S.A., priority 1997, dated 2002).
Where a name gives a salt, the structure may show the parent alone.

Assays:
[1] = Solubility limit noted in the V79 protection test; format: physicochemical; details: beyond 1 mM
[2] = test system: V79 cells; experiment: Protection of V79 cells against the toxicity of H2O2 (neutral red technique); format: cell-based; details: for IC50: Cricetulus griseus, 1 hour contact with compound, then 30 μM H2O2 for one hour, cell number after 72 hours by neutral red, read-out: Result (concentration inducing 50% protection), IC50
Protocol: The activity of the compounds was evaluated by their ability to protect V79 cells against the toxicity of H2O2, a technique conventionally used to evaluate the effectiveness of antioxidants or iron-chelating agents.
V79 cells were subcultured in DMEM (Dulbecco Modified Essential Medium) medium supplemented with 10% of foetal calf serum, streptomycin, penicillin and glutamine at 37° C. under an atmosphere of 95% air+5% CO2.
The cells were subsequently seeded at a density of 5×10^3/ml in 96-well plates.
After 24 hours, the cells were rinsed and then incubated with the test compounds at different concentrations.
After a contact time of 1 hour, 30 μM of H2O2 were added and incubated at 37° C. for a further one hour.
The cells were subsequently rinsed and then again brought into contact with the supplemented medium described above.
After 72 hours, the number of cells was evaluated in each well by using the neutral red technique.
The protective effect is assessed by the IC50, which measures the concentration which induces 50% protection against cytotoxicity in comparison with the wells treated only with H2O2.

solubility of compound in the test [1]	SMILES	IC50 [2] [µM]	protection against H2O2 cytotoxicity ([2]; compound at 10 mM, 30 μM H2O2)
insoluble beyond this point)	COC(=O)CN(CCN(CC(=O)OC)Cc1cc(OC)c(OC)c(OC)c1)Cc1cc(OC)c(OC)c(OC)c1 [Comparative 2]	> 1000	
	COc1cc(CN(CCN(CC(=O)OCOC(C)=O)Cc2cc(OC)c(OC)c(OC)c2)CC(=O)OCOC(C)=O)cc(OC)c1OC [Example 1, bis(acetoxymethyl) [N,N′-bis(3,4,5-trimethoxybenzyl)]-ethylenediamine-N,N′-diacetate]	10	
	COc1cc(CN(CCN(CC(=O)O)Cc2cc(OC)c(OC)c(OC)c2)CC(=O)O)cc(OC)c1OC [Comparative 1, the dihydrochloride of N,N′-bis(3,4,5-trimethoxybenzyl)ethylenediamine-N,N′-diacetic acid]		25% protection only at 10 mM
